The values below come from patent EP2886105B1, “Controlled-release formulations” (CAMURUS AB, priority 2007, dated 2018).

For series [1] the following is noted: natural Somatostatin; cited from earlier work.
The conditions of series [2]: cited from earlier work.
Series [3] in a line: In vivo release of SOM after subcutaneous injection, plasma SOM by ELISA. On the set-up: species or system rat. On the procedure:
A liquid lipid formulation comprising SPC/GDO/EtOH = 44/44/12 wt% was prepared as described in Example 1.
A freeze-dried powder of SOM (MW ca 1.6 kDa) and TRE was prepared in the same way as in Example 4 giving a SOM (free base)-to-TRE weight ratio of 1:2.5.
The freeze-dried powder was added to the lipid formulation such that the final SOM (free base) concentration in the formulation was 2 wt% (ca 20 mg/mL) followed by end-over-end rotation for 1 day. […] The final filter-sterilized formulation was then injected subcutaneously to rats (male Sprague-Dawley).
In the in vivo rat model the release of SOM was followed during 14 days. The formulations were administered subcutaneously between the scapulae by using a syringe (23G, 0.6mm × 25mm). The SOM concentration in the rat plasma was quantified using a commercial ELISA kit (S-1164, Bachem/Peninsula Laboratories, LOQ = 0.03 ng/mL). The dose was 20 mg/kg and dose volume was 1 mL/kg corresponding to a drug load of 2.0wt% SOM (free base).
(In general: ELISA stands for enzyme-linked immunosorbent assay.)

Structures can show the parent of a compound that is named as a salt.

For the compound `C[C@H](N)C(=O)NCC(=O)N[C@H]1CSSC[C@@H](C(=O)O)NC(=O)[C@H](CO)NC(=O)[C@H]([C@@H](C)O)NC(=O)[C@H](Cc2ccccc2)NC(=O)[C@H]([C@@H](C)O)NC(=O)[C@H](CCCCN)NC(=O)[C@H](Cc2c[nH]c3ccccc23)NC(=O)[C@H](Cc2ccccc2)NC(=O)[C@H](Cc2ccccc2)NC(=O)[C@H](CC(N)=O)NC(=O)[C@H](CCCCN)NC1=O` [SOM, Somatostatin, acetate salt], in series [1], the biological half-life is given as 1-3 minutes. Moreover, the “half-life of SOM in rat plasma” value in series [2] was “a few minutes”. For the same compound, in series [3] (rat plasma, subcutaneous, 20 mg/kg SOM lipid formulation, low initial release), the Release profile result is reported as “without a burst effect”. The “SOM levels higher than the endogenous SOM levels (factor)” value in series [3] (rat plasma, versus placebo formulation, depending on time point, over at least 14 days, s.c. 20 mg/kg) was 2-9. Further, the Duration of release result in series [3] (rat, subcutaneous, 20 mg/kg SOM lipid formulation) is on record as “at least 14 days”.
